Assays:
[1] = biological target: T1, rhesus (Macacca Mulatta) H3 receptor (Macaca mulatta, UniProt Q865E1); test: Rhesus H3 radioligand binding assay ([3H]-methylhistamine displacement, WGA SPA beads); set-up: species or system rhesus monkey (Macacca Mulatta); conditions: [3H]-methylhistamine 2 nM; membranes of Flp-In T-REx 293 cells expressing rhesus H3; Cheng-Prusoff
T1 construct: pcDNA5/FRT/TO (Invitrogen) containing the rhesus monkey (Macacca Mulatta) 445 amino acid H3 receptor
Method: (§1) Rhesus H3 membranes were prepared from the Flp-In T-REx 293 Cell Line (Invitrogen) stably transfected with pcDNA5/FRT/TO (Invitrogen) containing the rhesus monkey (Macacca Mulatta) 445 amino acid H3 receptor. (Genbank #AY231164). Stably transfected cultures were amplified in tissue culture flasks by standard tissue culture methods and induced to express rhesus H3 by exposure to 500 ng/ml tetracycline (Cellgro) for 24 hours. After induction, cells were dissociated from flasks utilizing Cell Stripper (Cellgro). Cells were centrifuged (1K×g, 5 min) and pellet frozen in an ethanol-dry ice bath to disrupt cell membranes. Frozen cell pellet was re-suspended in 5 mM HEPES (pH 7.4, Invitrogen) at 10 ml/1000 cm2 of harvested cells. The cell suspension was drawn through an 18 gauge needle (2-3×) followed by a 23 gauge needle (2-3×) to further disrupt cell membranes. The cell suspension was centrifuged (40K×g, 30 min). Cell membrane pellet was re-suspended in 5 mM HEPES (pH 7.4, Invitrogen) at a final protein concentration of 10 mg/ml. Rhesus H3 membranes were stored under liquid nitrogen prior to use in [3H]-Methylhistamine and GTP S radioligand binding assays.
Rhesus H3 radioligand binding assay was performed using rhesus H3 receptor membranes (prepared as described above), [3H]-Methylhistamine (Perkin Elmer) and WGA SPA beads (wheat germ agglutinin scintillation proximity assay) beads (Amersham). The assay was performed in 96-well Opti-Plates (Packard). Each reaction contained 50 μl rhesus H3 membranes (20-30 μg total protein), 50 μl WGA SPA beads (0.1 μg) and 50 μl of 83 Ci/mmol [^3H]-Methylhistamine (final concentration 2 nM) and 50 μl of tested compound. The compounds of this invention and/or vehicle were diluted with binding buffer from 10 mM DMSO stocks. Assay plates were sealed with TopSeal (Perkin Elmer) and mixed on shaker (25° C., 1 hour). Assay plates were read on TopCount scintillation counter (Packard). Results were analyzed by Hill transformation and Ki values were determined by Cheng-Prusoff equation.

rhesus H3 receptor = test: GTPγS radioligand binding assay: inhibition of rhesus H3 constitutive functional activity in cell membranes (inverse agonism); assay type: biochemical, rhesus monkey (Macacca Mulatta); set-up: concentration or dose not given beside the values; conditions: negative value = below basal level
Method: as §1

T1 sequence (Q865E1 1-445): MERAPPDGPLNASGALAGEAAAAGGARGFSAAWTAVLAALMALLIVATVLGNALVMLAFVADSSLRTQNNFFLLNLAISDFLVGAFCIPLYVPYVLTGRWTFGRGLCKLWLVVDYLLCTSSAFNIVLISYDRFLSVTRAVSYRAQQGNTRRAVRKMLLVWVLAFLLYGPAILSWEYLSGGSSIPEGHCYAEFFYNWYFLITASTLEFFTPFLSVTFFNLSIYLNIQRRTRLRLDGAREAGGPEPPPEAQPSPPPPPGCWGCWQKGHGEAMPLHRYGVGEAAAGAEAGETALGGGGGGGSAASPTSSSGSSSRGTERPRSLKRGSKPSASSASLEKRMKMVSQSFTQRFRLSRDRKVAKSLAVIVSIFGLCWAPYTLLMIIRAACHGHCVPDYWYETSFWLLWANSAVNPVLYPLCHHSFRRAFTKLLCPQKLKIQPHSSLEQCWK

Row | Ki [1] [nM] | Structure (SMILES) | Inverse Agonism: % inhibition of Basal GTPγS binding in Rhesus H3 (rhesus H3 receptor) [%]
1 | 0.93 | Cc1cc(N2CC[C@H](N3CCC[C@@H]3C)C2)ccc1N1CCC2(CCOCC2)C1=O [Example 1, 2-[2-Methyl-4-((2S,3′S)-2-methyl-[1,3′]bipyrrolidinyl-1′-yl)-phenyl]-8-oxa-2-aza-spiro[4.5]decan-1-one] | −25
2 | 0.38 | Cc1cc(N2CC[C@H](N3CCC[C@@H]3C)C2)ccc1N1CCCC2(CCOCC2)C1=O [Example 2, 2-[2-Methyl-4-((2S,3′S)-2-methyl-[1,3′]bipyrrolidinyl-1′-yl)-phenyl]-9-oxa-2-aza-spiro[5.5]undecan-1-one] | −9
3 | 0.63 | C[C@H]1CCCN1[C@H]1CCN(c2ccc(N3CCC4(CCOCC4)C3=O)cc2)C1 [Example 3, 2-[4-((2S,3′S)-2-Methyl-[1,3′]bipyrrolidinyl-1′-yl)-phenyl]-8-oxa-2-aza-spiro[4.5]decan-1-one] | −26
4 | 2.1 | C[C@H]1CCCN1[C@H]1CCN(c2ccc(N3CCC4(CCOCC4)C3=O)cc2F)C1 [Example 4, 2-[3-Fluoro-4-((2S,3′S)-2-methyl-[1,3′]bipyrrolidinyl-1′-yl)-phenyl]-8-oxa-2-aza-spiro[4.5]decan-1-one] | −31
5 | 0.7 | Cc1cc(N2CCC(N3CCC[C@@H]3C)CC2)ccc1N1CCC2(CCOCC2)C1=O [Example 5, 2-{2-Methyl-4-[4-((2S,3′S)-2-methyl-pyrrolidin-1-yl)-piperidin-1-yl]-phenyl}-8-oxa-2-aza-spiro[4.5]decan-1-one] | −11
6 | 38 | Cc1cc(N2CC[C@H](N3CCC[C@H]3C)C2)ccc1N1CCC2(CCOCC2)C1=O [Example 6] | −36
7 | 5.2 | CCC1CCCN1C1CCN(c2ccc(N3CCC4(CCOCC4)C3=O)c(F)c2)C1 (centres unmarked) [Example 7, 2-[4-(2-Ethyl-[1,3′]bipyrrolidinyl-1′-yl)-2-fluoro-phenyl]-8-oxa-2-aza-spiro[4.5]decan-1-one] | −35
8 | 76 | CC(C)C1CCCN1C1CCN(c2ccc(N3CCC4(CCOCC4)C3=O)c(F)c2)C1 (centres unmarked) [Example 8, 2-[2-Fluoro-4-(2-isopropyl-[1,3′]bipyrrolidinyl-1′-yl)-phenyl]-8-oxa-2-aza-spiro[4.5]decan-1-one] | −22
9 | 170 | CCCC1CCCN1C1CCN(c2ccc(N3CCC4(CCOCC4)C3=O)c(F)c2)C1 (centres unmarked) [Example 9, 2-[2-Fluoro-4-(2-propyl-[1,3′]bipyrrolidinyl-1′-yl)-phenyl]-8-oxa-2-aza-spiro[4.5]decan-1-one] | −30
10 | 0.16 | C[C@H]1CCCN1C1CCN(c2ccc(N3CCC4(CCOCC4)C3=O)c(F)c2)CC1 [Example 10, 2-{2-Fluoro-4-[4-((2S,3′S)-2-methyl-pyrrolidin-1-yl)piperidin-1-yl]-phenyl}-8-oxa-2-aza-spiro[4.5]decan-1-one] | −33
11 | 0.45 | C[C@H]1CCCN1[C@H]1CCN(c2ccc(N3CCC4(CCOCC4)C3=O)c(F)c2)C1 [Example 11, 2-[2-Fluoro-4-((2S,3′S)-2-methyl-[1,3′]bipyrrolidinyl-1′-yl)-phenyl]-8-oxa-2-aza-spiro[4.5]decan-1-one] | −11
12 | 0.45 | C[C@H]1CCCCN1C1CCN(c2ccc(N3CCC4(CCOCC4)C3=O)c(F)c2)CC1 [Example 12, 2-[2-Fluoro-4-((2S,3′S)-2-methyl-[1,4]bipiperidinyl-1′-yl)-phenyl]-8-oxa-2-aza-spiro[4.5]decan-1-one] | −22
13 | 16 | CC(C)C1CCCN1C1CCN(c2ccc(N3CCC4(CCOCC4)C3=O)cc2)CC1 (centres unmarked) [Example 13, 2-{4-[4-(2-Isopropyl-pyrrolidin-1-yl)-piperidin-1-yl]-phenyl}-8-oxa-2-aza-spiro[4.5]decan-1-one] | −22
14 | 13 | CCCC1CCCN1C1CCN(c2ccc(N3CCC4(CCOCC4)C3=O)cc2)CC1 (centres unmarked) [Example 14, 2-{4-[4-(2-Propyl-pyrrolidin-1-yl)-piperidin-1-yl]-phenyl}-8-oxa-2-aza-spiro[4.5]decan-1-one] | −33
15 | 190 | COCC1CCCN1C1CCN(c2ccc(N3CCC4(CCOCC4)C3=O)cc2)C1 (centres unmarked) [Example 15, 2-[4-(2-Methoxymethyl-[1,3′]bipyrrolidinyl-1′-yl)-phenyl]-8-oxa-2-aza-spiro[4.5]decan-1-one] | −26
16 | 0.52 | C[C@H]1CCCN1C1CCN(c2ccc(N3CCC4(CCOCC4)C3=O)cc2)CC1 [Example 16, 2-{4-[4-((2S,3′S)-2-Methyl-pyrrolidin-1-yl)-piperidin-1-yl]-phenyl}-8-oxa-2-aza-spiro[4.5]decan-1-one] | −29
17 | 2.5 | C[C@H]1CCCN1[C@H]1CCN(c2ccc(N3CCCC4(CCOCC4)C3=O)cc2F)C1 [Example 17, 2-[3-Fluoro-4-(2-methyl-[1,3′]bipyrrolidinyl-1′-yl)-phenyl]-9-oxa-2-aza-spiro[5.5]undecan-1-one] | −16
18 | 4.3 | CCC1CCCN1C1CCN(c2ccc(N3CCC4(CCOCC4)C3=O)c(C(F)(F)F)c2)CC1 (centres unmarked) [Example 18, 2-{4-[4-(2-Ethyl-pyrrolidin-1-yl)-piperidin-1-yl]-2-trifluoromethyl-phenyl}-8-oxa-2-aza-spiro[4.5]decan-1-one] | −35
19 | 100 | CC(C)C1CCCN1C1CCN(c2ccc(N3CCC4(CCOCC4)C3=O)c(C(F)(F)F)c2)CC1 (centres unmarked) [Example 19, 2-{4-[4-(2-Isopropyl-pyrrolidin-1-yl)-piperidin-1-yl]-2-trifluoromethyl-phenyl}-8-oxa-2-aza-spiro[4.5]decan-1-one] | −8
20 | 650 | CCCC1CCCN1C1CCN(c2ccc(N3CCC4(CCOCC4)C3=O)c(C(F)(F)F)c2)C1 (centres unmarked) [Example 20, 2-[4-(2-Propyl-[1,3′]bipyrrolidinyl-1′-yl)-2-trifluoromethyl-phenyl]-8-oxa-2-aza-spiro[4.5]decan-1-one] | −12
21 | 0.42 | C[C@H]1CCCN1C1CCN(c2ccc(N3CCC4(CCOCC4)C3=O)c(C(F)(F)F)c2)CC1 [Example 21, 2-{4-[4-((2S,3′S)-2-Methyl-pyrrolidin-1-yl)-piperidin-1-yl]-2-trifluoromethyl-phenyl}-8-oxa-2-aza-spiro[4.5]decan-1-one] | −19
22 | 8.6 | C[C@H]1CCCN1[C@H]1CCN(c2ccc(N3CCC4(CCOCC4)C3=O)c(C(F)(F)F)c2)C1 [Example 22, 2-[4-((2S,3′S)-2-Methyl-[1,3′]bipyrrolidinyl-1′-yl)-2-trifluoromethyl-phenyl]-8-oxa-2-aza-spiro[4.5]decan-1-one] | −21
23 | 1.5 | C[C@H]1CCCCN1C1CCN(c2ccc(N3CCC4(CCOCC4)C3=O)c(C(F)(F)F)c2)CC1 [Example 23, 2-[4-((2S,3′S)-2-Methyl-[1,4]bipiperidinyl-1′-yl)-2-trifluoromethyl-phenyl]-8-oxa-2-aza-spiro[4.5]decan-1-one] | −29
24 | 18 | CCCC1CCCN1C1CCN(c2ccc(N3CCC4(CCOCC4)C3=O)c(CC)c2)CC1 (centres unmarked) [Example 24, 2-{2-Ethyl-4-[4-(2-propyl-pyrrolidin-1-yl)-piperidin-1-yl]-phenyl}-8-oxa-2-aza-spiro[4.5]decan-1-one] | −18
25 | 4.9 | CCc1cc(N2CCC(N3CCCC3COC)CC2)ccc1N1CCC2(CCOCC2)C1=O (centres unmarked) [Example 25, 2-{2-Ethyl-4-[4-(2-methoxymethyl-pyrrolidin-1-yl)piperidin-1-yl]-phenyl}-8-oxa-2-aza-spiro[4.5]decan-1-one] | −13
26 | 0.13 | CCc1cc(N2CCC(N3CCC[C@@H]3C)C2)ccc1N1CCC2(CCOCC2)C1=O (some centres unmarked) [Example 26] | 
27 | 0.7 | C[C@H]1CCCN1[C@H]1CCN(c2ccc(N3CCCC4(CCOCC4)C3=O)c(F)c2)C1 [Example 27, 2-[2-Fluoro-4-((2S,3′S)-2-methyl-[1,3′]bipyrrolidinyl-1′-yl)-phenyl]-9-oxa-2-aza-spiro[5.5]undecan-1-one] | −20
